Laboratory results: US7399871B2, “Crystal forms of (S)-(+)-N,N-dimethyl-3-(1-naphthalenyloxy)-3-(2-thienyl)propanamine oxalate and the preparation thereof” (Teva Pharmaceutical Industries Ltd., priority 2005, dated 2008)

Assay: Storage stability of DNT-Oxal crystal forms (polymorphic form by XRD)
Assay type: physicochemical
Details: stored at room temperature for 11 months; for Crystal form after the storage: crystal form before vs after the storage, oxalate
Description: Crystal forms of DNT-Oxal were stored at room temperature for 11 months. […] The forms of DNT-Oxal were identified using a Scintag X-ray powder diffractometer model X'TRA with a Cu-tube solid state detector. The sample holder was a round standard aluminum sample holder with rough zero background quartz plate with a cavity having a diameter of 25 mm and a depth of 0.5 mm. The scanning parameters were as follows: a range of 2° to 40° 2θ; a continuous scan mode, and a step size of 0.05° at a rate of 3°/minute.

SMILES | Polymorphic stability on storage | Crystal form after the storage
CN(C)CC[C@H](Oc1cccc2ccccc12)c1cccs1.O=C(O)C(=O)O [Form II, (S)-(+)-N,N-Dimethyl-3-(1-naphthalenyloxy)-3-(2-thienyl)propanamine oxalate] | polymorphically stable | Form II
CN(C)CC[C@H](Oc1cccc2ccccc12)c1cccs1.O=C(O)C(=O)O [Form III, (S)-(+)-N,N-Dimethyl-3-(1-naphthalenyloxy)-3-(2-thienyl)propanamine oxalate] | polymorphically stable | Form III
